Data reported in patent US20110251238A1, “PPAR AGONIST COMPOSITIONS AND METHODS OF USE” (BIOPHARMED, priority 2008, published 2011).
≈ marks a conversion by molar mass, not a printed value. Structures can show the parent of a compound that is named as a salt. Where two headings read alike, the source gives them in different places.

How the values were obtained:
[1] = system: bloodstream forms of T. brucei and T. congolense; assay: Trypanocidal activity in vitro, Alamar Blue assay; format: cell-based, Trypanosoma brucei and T. congolense
Source text: Trypanosoma brucei and T. congolense are the causative agents of sleeping sickness in humans and nagana in cattle, respectively. The protozoan parasites live extracellularlyin blood and tissue fluids of mammals and are transmitted by the bite of infected tsetse flies (Glossina spp.). Here the trypanocidal activity against bloodstream forms of T. brucei and T. congolense of bis-8-hydroxy quinoline N-substituted benzylamines derivatives was investigated in vitro, according to methods described in. Steverding et al. (2006) Kinetoplastid Biology and Disease, 5(3): 1-5; Hongmance et al., (2007) Antimicrob. Agents Chemother. 51:1105-1106; and Zhao et al., (2005) Bio-org. Med. Chem.; 13: 3921-3926. Cells were seeded into 96-well tissue culture plates in 200 μl medium containing various concentrations of analogues dissolved in H2O. The controls contained the respective solvent alone. […] After 24 h (trypanosomes) or 43 h (HL-60) incubation, 20 μl of the colorimetric viability indicator Alamar Blue® was added to each well. The cells were incubated for a further 24 h (trypanosomes) or 5 h (HL-60) so that the total incubation time was 48 h. Then, the plates were read on a Dynatech MR5000ELISA reader (Denkendorf, Germany),using a test wavelength of 550 nm and a reference wave length of 630 nm. Each test was set up in duplicate and repeated three times. For comparison, the general cytotoxicity of the compounds was assayed with human myeloid leukaemia HL-60 cells. The anti-trypanosomal activities and the general cytotoxicities of the new analogues were evaluated using the Alamar Blue® assay.

[2] = system: KB3 (epitheloid lung cancer) cell lines; assay: Cell growth inhibition (cytotoxicity), MTS assay, KB3 cell line; format: cell-based; settings: for cytotoxic activity in words: structure-cytotoxicity discussion
Protocol: Cell growth inhibition was determined by the MTS assay; the number of viable cells were proportional to the extent of formazan production in the presence or absence of drugs. […]

[3] = system: PC3 (human prostate cancer); assay: Growth inhibition, MTT colorimetric assay, PC3; format: cell-based; settings: Homo sapiens, 72 h; carcinoma; 3 days with drug; means of six values; unit inferred; read-out: IC50 PC3
Protocol: (§1) Compounds that met the criteria for activity on KB3 cells were further tested for drug growth inhibitory activity in 5 carcinoma, 6 glioma and 3 melanoma cell lines, shown in Table 4. A549 (human lung adenocarcinoma epithelial), BxPC3 (pancreatic cancer), LoVo (colon cancer), MCF-7 (epithelial breast cancer), PC3 (human prostate cancer), Hs683 (human glioma), T98G (glioblastoma), U373 (human glioblastoma-astrocytoma), U138 MG (human glioma), epithelial-like), SKMEL28 (human melanoma), B16-F10 (mouse melanoma) and RhTP (rhabdomyosarcoma) cell lines were cultured in presence of the drugs for 3 days. The cytotoxic activity is expressed as (IC50). Inhibition of cell proliferation measured by the MTT colorimetric assay. The values reported in Table 4 are means of six distinct values. The standard errors are <5% as compared to the mean values.

[4] = system: A549 (human lung adenocarcinoma epithelial); assay: Growth inhibition, MTT colorimetric assay, A549; format: cell-based; settings: Homo sapiens, A549, 72 h; carcinoma; 3 days with drug; means of six values; unit inferred; read-out: IC50 A549
Protocol: as §1, with “A549” for “Compounds that met the criteria for activity on KB3 cells were further tested for drug growth inhibitory activity in 5 carcinoma, 6 glioma and 3 melanoma cell lines, shown in Table 4. A549”, “values.” for “values. The standard errors are <5% as compared to the mean values.”

U138 MG (human glioma) = assay: Growth inhibition, MTT colorimetric assay, U138; format: cell-based; settings: Homo sapiens, U138-MG, 72 h; glioma; 3 days with drug; means of six values; unit inferred; read-out: IC50 U138
Protocol: as §1

Hs683 (human glioma) = assay: Growth inhibition, MTT colorimetric assay, HS683; format: cell-based; settings: Homo sapiens, Hs 683, 72 h; glioma; 3 days with drug; means of six values; unit inferred; read-out: IC50 HS683
Protocol: as §1, with “A549” for “Compounds that met the criteria for activity on KB3 cells were further tested for drug growth inhibitory activity in 5 carcinoma, 6 glioma and 3 melanoma cell lines, shown in Table 4. A549”, “values.” for “values. The standard errors are <5% as compared to the mean values.”

RhTP (rhabdomyosarcoma) = assay: Growth inhibition, MTT colorimetric assay, RhTp; format: cell-based; settings: 72 h; 3 days with drug; means of six values; unit inferred; read-out: IC50 RhTp
Protocol: as §1

GL19 = assay: Growth inhibition, MTT colorimetric assay, GL19; format: cell-based; settings: GL19, 72 h; 3 days with drug; means of six values; unit inferred; read-out: IC50 GL19
Protocol: as §1

[5] = system: MCF-7 (epithelial breast cancer); assay: Growth inhibition, MTT colorimetric assay, MCF7; format: cell-based; settings: Homo sapiens, MCF7, 72 h; carcinoma; 3 days with drug; means of six values; unit inferred; read-out: IC50 MCF7
Protocol: as §1, with “A549” for “Compounds that met the criteria for activity on KB3 cells were further tested for drug growth inhibitory activity in 5 carcinoma, 6 glioma and 3 melanoma cell lines, shown in Table 4. A549”, “values.” for “values. The standard errors are <5% as compared to the mean values.”

[6] = system: BxPC3 (pancreatic cancer); assay: Growth inhibition, MTT colorimetric assay, BxPC3; format: cell-based, human; settings: Homo sapiens, BXPC-3, 72 h; carcinoma; 3 days with drug; means of six values; unit inferred; read-out: IC50 BxPC3
Protocol: Cells are cultured at 37° C. in Falcon culture dishes, incubated at 5% CO2 in a suitable culture medium available from Invitrogen Corp. Anti-proliferative activity is determined by an MTT assay (bromide of (3-[4,5-dimethylthiazolium-yl]diphenyltetrazolium)). According to one standard protocol, absorbance is measured at 570 nm (see Dumont et al. (2007) Neoplasia 9: 766-776.
as §1, with “A549” for “Compounds that met the criteria for activity on KB3 cells were further tested for drug growth inhibitory activity in 5 carcinoma, 6 glioma and 3 melanoma cell lines, shown in Table 4. A549”, “values.” for “values. The standard errors are <5% as compared to the mean values.”

LoVo (colon cancer) = assay: Growth inhibition, MTT colorimetric assay, LoVo; format: cell-based; settings: Homo sapiens, LoVo, 72 h; carcinoma; 3 days with drug; means of six values; unit inferred; read-out: IC50 LoVo
Protocol: as §1, with “A549” for “Compounds that met the criteria for activity on KB3 cells were further tested for drug growth inhibitory activity in 5 carcinoma, 6 glioma and 3 melanoma cell lines, shown in Table 4. A549”, “values.” for “values. The standard errors are <5% as compared to the mean values.”

SKMEL28 (human melanoma) = assay: Growth inhibition, MTT colorimetric assay, SKMEL-28; format: cell-based; settings: Homo sapiens, SK-MEL-28, 72 h; melanoma; 3 days with drug; means of six values; unit inferred; read-out: IC50 SKMEL-28
Protocol: as §1

T98G (glioblastoma) = assay: cells; format: cell-based; settings: Homo sapiens, T98G, 72 h; glioma; 3 days with drug; means of six values; unit inferred; read-out: IC50 T98G
Protocol: as §1, with “A549” for “Compounds that met the criteria for activity on KB3 cells were further tested for drug growth inhibitory activity in 5 carcinoma, 6 glioma and 3 melanoma cell lines, shown in Table 4. A549”, “values.” for “values. The standard errors are <5% as compared to the mean values.”

[7] = system: U373 (human glioblastoma-astrocytoma); assay: Growth inhibition, MTT colorimetric assay, U373; format: cell-based; settings: Homo sapiens, U373 MG, 72 h; glioma; 3 days with drug; means of six values; unit inferred; read-out: IC50 U373
Protocol: as §1

Host = assay: Growth inhibition, MTT colorimetric assay, Host; format: cell-based; settings: 72 h; 3 days with drug; means of six values; unit inferred; read-out: IC50 Host
Protocol: as §1

KaKa = assay: Growth inhibition, MTT colorimetric assay, KaKa; format: cell-based; settings: 72 h; 3 days with drug; means of six values; unit inferred; read-out: IC50 KaKa
Protocol: as §1

B16-F10 (mouse melanoma) = assay: Growth inhibition, MTT colorimetric assay, B16F10; format: cell-based; settings: Mus musculus, B16-F10, 72 h; melanoma; 3 days with drug; means of six values; unit inferred; read-out: IC50 B16F10
Protocol: as §1

[8] = 50% growth inhibition, 48 h total incubation, read-out: GI50
[9] = lowest concentration at which all cells were killed, 48 h total incubation, read-out: MIC
[10] = Table 3A, MTS assay, triplicate, read-out: KB3 IC50
[11] = KB3, Table 3B, MTS assay, triplicate, read-out: KB3 IC50
[12] = KB3, Table 3A, MTS assay, triplicate, read-out: KB3 IC50

## Cc1ccc2c(CN(Cc3ccc(C(F)(F)F)cc3)Cc3ccc(O)c4nc(C)ccc34)ccc(O)c2n1 [BPM19,876, 5,5′-(4-trifluoromethylbenzylazanediyl)bis(methylene)bis(2-methylquinolin-8-ol)]
[1]; [8]
  GI50: 3.71 ± 0.24 µM
[1]; [9]
  MIC: 100 µM (≈ 51.8 µg/mL)

## 5,5′-(2-(pyridin-2-yl)ethylazanediyl)bis(methylene)diquinolin-8-ol) [BPM19,193]
[2]; [10]
  IC50: > 10 µM

## Oc1ccc(CN(Cc2ccccc2)Cc2ccccc2)c2cccnc12 [BPM19,230, 5-((dibenzylamino)methyl)quinolin-8-ol]
[2]; [11]
  IC50: 1 µM

## Oc1ccc(N(Cc2cccc3ccccc23)c2ccc(O)c3ncccc23)c2cccnc12 [BPM19,702, 5,5′-(naphthalen-1-ylmethylazanediyl)diquinolin-8-ol]
[1]; [8]
  GI50: 0.29 µM
[1]; [9]
  MIC: 1 µM (≈ 0.444 µg/mL)

## Oc1ccc(CNCc2cccc(C(F)(F)F)c2)c2cccnc12 [BPM19,114, 5-((3-(trifluoromethyl)benzylamino)methyl)quinolin-8-ol]
[2]; [11]
  IC50: 0.2 µM
[2]; KB3 cell line
  cytotoxic activity in words: significant cytotoxic activity

## Cn1cccc1CN(Cc1ccc(O)c2ncccc12)Cc1ccc(O)c2ncccc12 [BPM19,216, 5,5′-((1-methyl-1H-pyrrol-2-yl)methylazanediyl)bis(methylene)diquinolin-8-ol]
[1]; [8]
  GI50: 0.32 ± 0.01 µM
[1]; [9]
  MIC: 1 µM (≈ 0.425 µg/mL)

## 5,5′-(2-(pyrrolidin-1-yl)ethylazanediyl)bis(methylene)diquinolin-8-ol) [BPM19,214]
[2]; [10]
  IC50: 1 µM

## O=C(O)C1CCC(CN(Cc2ccc(O)c3ncccc23)Cc2ccc(O)c3ncccc23)CC1 (stereo not shown) [BPM19,225, 4-((bis((8-hydroxyquinolin-5-yl)methyl)amino)-methyl)cyclohexanecarboxylic acid]
[3]
  IC50: 0.993 µM
[4]
  IC50: 0.661 µM
U138 MG (human glioma)
  IC50: > 10 µM
Hs683 (human glioma)
  IC50: 2.86 µM
RhTP (rhabdomyosarcoma)
  IC50: > 10 µM
GL19
  IC50: 7.6 µM
[5]
  IC50: 9.46 µM
[6]
  IC50: 4.34 µM
LoVo (colon cancer)
  IC50: 0.422 µM
SKMEL28 (human melanoma)
  IC50: > 10 µM
T98G (glioblastoma)
  IC50: 9.76 µM
[7]
  IC50: 3.73 µM
Host
  IC50: > 10 µM
KaKa
  IC50: > 10 µM
B16-F10 (mouse melanoma)
  IC50: > 10 µM

## Oc1ccc(CNCc2ccccc2)c2cccnc12 [BPM18,726, 5-((benzylamino)methyl)quinolin-8-ol dihydrochloride]
[2]; [11]
  IC50: > 1 µM

## Oc1ccc(CNCc2ccc(C(F)(F)F)cc2)c2cccnc12 [BPM19,191, 5-((4-(trifluoromethyl)benzylamino)methyl)quinolin-8-ol]
[2]; [11]
  IC50: 10 µM

## Oc1ccc(CN(Cc2ccc(O)c3ncccc23)CC2CCCO2)c2cccnc12 (stereo not shown) [BPM19,197, 5,5′-((tetrahydrofuran-2-yl)methylazanediyl)bis(methylene)diquinolin-8-ol]
[1]; [8]
  GI50: 2.99 ± 0.05 µM
[1]; [9]
  MIC: 10 µM (≈ 4.15 µg/mL)
[2]; [12]
  IC50: 10 µM

## CC(=O)O[C@@]12CO[C@@H]1C[C@H](O)[C@@]1(C)C(=O)[C@H](O)C3=C(C)[C@@H](OC(=O)[C@H](O)[C@@H](NC(=O)OC(C)(C)C)c4ccccc4)C[C@@](O)([C@@H](OC(=O)c4ccccc4)[C@H]21)C3(C)C [docetaxel, reference compound]
[2]; compared with KB3 values, read-out: IC50 value of reference drug
  IC50: 0.0001 µM

## Cc1ccc(C(=O)NCc2ccc(O)c3ncccc23)cc1 [BPM18,203, N-((8-hydroxyquinolin-5-yl)methyl)-4-methylbenzamide]
[2]; [11]
  IC50: 1 µM
[2]; KB3 cell line
  CC50: 1 µM
  cytotoxic activity in words: inactive or only weakly active

## Oc1ccc(CN(Cc2ccc(OC(F)(F)F)cc2)Cc2ccc(O)c3ncccc23)c2cccnc12 [BPM19,205, 5,5′-(4-(trifluoromethoxy)benzylazanediyl)bis(methylene)diquinolin-8-ol]
[1]; [8]
  GI50: 0.32 ± 0.02 µM
[1]; [9]
  MIC: 1 µM (≈ 0.505 µg/mL)
[2]; [12]
  IC50: 0.1 to 1 µM

## Cc1ccc(CNCc2ccc(O)c3ncccc23)cc1 [BPM19,167, 5-((4-methylbenzylamino)methyl)quinolin-8-ol dihydrochloride]
[1]; 48 h
  GI50: 14.8 ± 2.59 µM
  MIC: 100 µM
